{"source": "paper PMC8555409", "about": "(Journal of medicinal chemistry, 2021)", "key": {"EphA4-LBD": {"biological_target": "EphA4-LBD (Homo sapiens, UniProt P54764, C204A)", "sequence (P54764 29-209 C204A)": "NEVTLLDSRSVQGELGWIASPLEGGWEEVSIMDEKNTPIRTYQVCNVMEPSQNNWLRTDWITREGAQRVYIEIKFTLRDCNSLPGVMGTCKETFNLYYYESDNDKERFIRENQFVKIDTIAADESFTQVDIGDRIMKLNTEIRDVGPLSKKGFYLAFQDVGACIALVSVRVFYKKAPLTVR", "assay": "2D [13C,1H] NMR chemical shift perturbations with 13Cε-Met labeled EphA4-LBD"}, "[1]": {"system": "motor neurons co-cultured with iAstrocytes derived from sALS patients", "format": "cell-based, mouse", "conditions": "100 μM, 3 days co-culture"}, "[2]": {"system": "SOD1(G93A) transgenic mice", "conditions": "daily in vivo administration; cited from earlier work"}, "EphA4": {"system": "EphA4", "conditions": "cited from earlier work"}}, "note": "Non-standard residues stand in square brackets, D forms with d. Residues, ends and D or L forms follow the SMILES beside them. *: point of attachment. Cyclohexanoyl(1S,3S-3-NH2) = N[C@H]1CCC[C@H](C(=O)*)C1; Trp(5-OH) = N[C@@H](Cc1c[nH]c2ccc(O)cc12)C(=O)O; NH(4-morpholinophenyl) = c1cc(N2CCOCC2)ccc1N*; Bip = N[C@@H](Cc1ccc(-c2ccccc2)cc1)C(=O)O; hArg = N=C(N)NCCCC[C@H](N)C(=O)O", "data": [{"compound": "N=C(N)NCCCC[C@H](NC(=O)[C@H](Cc1ccc(-c2ccccc2)cc1)NC(=O)[C@H](Cc1c[nH]c2ccc(O)cc12)NC(=O)[C@H]1CCC[C@H](N)C1)C(=O)NCC(=O)Nc1ccc(N2CCOCC2)cc1", "note": "[compound 33] ({Cyclohexanoyl(1S,3S-3-NH2)}-[Trp(5-OH)][Bip][hArg]G-{NH(4-morpholinophenyl)})", "values": [{"measurement": "Kd", "setting": "EphA4-LBD", "result": "< 60", "unit": "nM"}]}, {"compound": "COc1ccc2[nH]cc(CCNC(=O)[C@H](Cc3ccncc3)NC(=O)[C@H](Cc3ccc(Cl)cc3)NC(=O)[C@H](Cc3c[nH]c4ccc(O)cc34)NC(=O)CCCN)c2c1", "note": "[123C4]", "values": [{"measurement": "protection of motor neurons from sALS iAstrocytes (motor neuron survival)", "setting": "[1]", "result": "able to protect mouse motor neurons"}, {"measurement": "survival", "setting": "[2]", "result": "significantly prolonged survival"}, {"measurement": "agonistic activity for EphA4 in primary cortical neurons", "setting": "EphA4", "result": "induced receptor phosphorylation and growth cone collapse"}]}]}
